Assays:
human TRPV1 [1] = biological target: T1, human TRPV1 (Homo sapiens (Human), UniProt Q8NER1); experiment: Acid Activation Assay (pH 5.0, intracellular Ca2+, FLIPR); format: cell-based; conditions: percentage of the maximal pH 5.0-induced response remaining; recombinant HEK293 hTRPV1 cells; maximum concentration tested 37.5 μM
Procedure, shortened: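 HEK293 cells stably expressing recombinant hTRPV1, loaded with Calcium-4 dye 90-120 min at 25° C. Compounds added over a 12-point half-log range (top 37.5 μM), then pH 5.0 DPBS/MES challenge after 3 min; FLIPR peak fluorescence over baseline given as % of maximal pH 5.0 response.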

human TRPV1 [2] = biological target: T1, human TRPV1; experiment: Capsaicin Activation Assay (intracellular Ca2+, FLIPR); format: cell-based; conditions: recombinant HEK293 cells expressing hTRPV1, 50 nM capsaicin
Procedure, shortened: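 Stably transfected HEK293 cells expressing human TRPV1 cDNA, plated the day before in poly-D-lysine plates. Compounds serially diluted from 10 mM DMSO stocks; intracellular Ca2+ fluorescence read on FLIPR at 1 to 5 second intervals.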

T1 sequence (Q8NER1 whole entry): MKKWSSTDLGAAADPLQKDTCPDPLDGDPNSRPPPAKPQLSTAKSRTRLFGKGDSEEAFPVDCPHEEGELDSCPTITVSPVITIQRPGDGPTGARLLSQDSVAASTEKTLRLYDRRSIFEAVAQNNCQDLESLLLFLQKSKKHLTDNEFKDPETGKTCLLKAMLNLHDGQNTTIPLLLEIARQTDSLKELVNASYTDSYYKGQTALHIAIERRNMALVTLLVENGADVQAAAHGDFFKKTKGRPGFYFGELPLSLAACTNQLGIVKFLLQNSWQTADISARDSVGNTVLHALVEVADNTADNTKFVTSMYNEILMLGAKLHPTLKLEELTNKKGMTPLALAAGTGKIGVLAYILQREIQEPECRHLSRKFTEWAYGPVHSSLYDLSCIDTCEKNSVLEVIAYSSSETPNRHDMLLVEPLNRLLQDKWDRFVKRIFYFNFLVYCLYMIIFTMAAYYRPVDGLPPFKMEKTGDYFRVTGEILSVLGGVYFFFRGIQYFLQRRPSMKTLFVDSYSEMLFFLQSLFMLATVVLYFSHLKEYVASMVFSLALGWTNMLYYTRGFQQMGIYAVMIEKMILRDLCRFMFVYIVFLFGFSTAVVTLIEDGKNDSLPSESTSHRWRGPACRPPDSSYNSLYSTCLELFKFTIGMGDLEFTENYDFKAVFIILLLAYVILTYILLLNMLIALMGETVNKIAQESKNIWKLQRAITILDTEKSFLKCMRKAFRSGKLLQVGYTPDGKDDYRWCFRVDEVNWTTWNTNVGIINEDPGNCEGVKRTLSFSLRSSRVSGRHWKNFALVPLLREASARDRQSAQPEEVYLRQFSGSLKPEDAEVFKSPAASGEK

human TRPV1 H^+ (max % remain) (human TRPV1 [1]) | IC50 (human TRPV1 [2]) | SMILES
58% | 1500 nM | CN1Cc2ccc(NC(=O)N[C@@H]3CC(CF)(CF)Oc4ccc(F)cc43)cc2NC1=O [Example 186, 1-[(4R)-6-fluoro-2,2-bis(fluoromethyl)-3,4-dihydro-2H-chromen-4-yl]-3-(3-methyl-2-oxo-1,2,3,4-tetrahydroquinazolin-7-yl)urea]
1% | 94 nM | CCN1C(=O)NCc2c(NC(=O)N[C@@H]3CC(C)(C)Oc4ccccc43)cccc21 [Example 8, 1-[(4R)-2,2-dimethyl-3,4-dihydro-2H-chromen-4-yl]-3-(I-ethyl-2-oxo-1,2,3,4-tetrahydroquinazolin-5-yl)urea]
33% | 100 nM | CN1C(=O)NCc2c(NC(=O)N[C@@H]3CC(CF)(CF)Oc4c(Cl)cccc43)cccc21 [Example 148, 1-[(4R)-8-chloro-2,2-bis(fluoromethyl)-3,4-dihydro-2H-chromen-4-yl]-3-(1-methyl-2-oxo-1,2,3,4-tetrahydroquinazolin-5-yl)urea]
19% | 220 nM | CCCC1(CCC)C[C@@H](NC(=O)Nc2ccc3c(c2)NC(=O)CC3)c2cc(F)ccc2O1 [Example 227, 1-[(4R)-6-fluoro-2,2-dipropyl-3,4-dihydro-2H-chromen-4-yl]-3-(2-oxo-1,2,3,4-tetrahydroquinolin-7-yl)urea]
50% | 220 nM | O=C1CCc2ccc(NC(=O)N[C@@H]3CC(CF)(CF)Oc4c(F)cccc43)cc2N1 [Example 216, 1-[(4R)-8-fluoro-2,2-bis(fluoromethyl)-3,4-dihydro-2H-chromen-4-yl]-3-(2-oxo-1,2,3,4-tetrahydroquinolin-7-yl)urea]
57% | 120 nM | O=C1CCc2ccc(NC(=O)N[C@@H]3CC4(CCC4)Oc4ccc(F)cc43)cc2N1 [Example 228, 1-[(4R)-6-fluoro-3,4-dihydrospiro[chromene-2,1′-cyclobutan]-4-yl]-3-(2-oxo-1,2,3,4-tetrahydroquinolin-7-yl)urea]
86% | 820 nM | CN1C(=O)CCc2ccc(NC(=O)N[C@@H]3CC(CF)(CF)Oc4c(F)cccc43)cc21 [Example 281, 1-[(4R)-8-fluoro-2,2-bis(fluoromethyl)-3,4-dihydro-2H-chromen-4-yl]-3-(1-methyl-2-oxo-1,2,3,4-tetrahydroquinolin-7-yl)urea]
48% | 13 nM | O=C1CCc2ccc(NC(=S)N[C@@H]3CC(CF)(CF)Oc4cc(Cl)ccc43)cc2N1 [Example 252, 1-[(4R)-7-chloro-2,2-bis(fluoromethyl)-3,4-dihydro-2H-chromen-4-yl]-3-(2-oxo-1,2,3,4-tetrahydroquinolin-7-yl)thiourea]
67% | 700 nM | O=C(Nc1ccc2c(c1)NC(=O)N(CCO)C2)N[C@H]1CC2(CCC2)Oc2ccc(F)cc21 [Example 56, 1-[(4S)-6-fluoro-3,4-dihydrospiro[chromene-2,1′-cyclobutan]-4-yl]-3-[3-(2-hydroxyethyl)-2-oxo-1,2,3,4-tetrahydroquinazolin-7-yl]urea]
76% | 46 nM | C[C@@]1(C(F)F)C[C@@H](NC(=O)Nc2ccc3c(c2)NC(=O)CO3)c2ccc(Cl)cc2O1 [Example 322, 1-[(2S,4R)-7-chloro-2-(difluoromethyl)-2-methyl-3,4-dihydro-2H-chromen-4-yl]-3-(3-oxo-3,4-dihydro-2H-1,4-benzoxazin-6-yl)urea]
23% | 170 nM | CN1C(=O)NCc2c(NC(=O)N[C@@H]3CC(CF)(CF)Oc4c(F)cc(F)cc43)cccc21 [Example 153, 1-[(4R)-6,8-difluoro-2,2-bis(fluoromethyl)-3,4-dihydro-2H-chromen-4-yl]-3-(1-methyl-2-oxo-1,2,3,4-tetrahydroquinazolin-5-yl)urea]
96% | 330 nM | C[C@@]1(C(F)(F)F)C[C@@H](NC(=O)Nc2ccc3c(c2)NC(=O)CO3)c2ccccc2O1 [Example 125, 1-[(2S,4R)-2-methyl-2-(trifluoromethyl)-3,4-dihydro-2H-chromen-4-yl]-3-(3-oxo-3,4-dihydro-2H-1,4-benzoxazin-6-yl)urea]
2% | 1200 nM | CC1(C)C[C@@H](NC(=O)Nc2ccc3c(c2)NC(=O)N(CCO)C3)c2ccc(Cl)c(F)c2O1 [Example 61, 1-[(4R)-7-chloro-8-fluoro-2,2-dimethyl-3,4-dihydro-2H-chromen-4-yl]-3-[3-(2-hydroxyethyl)-2-oxo-1,2,3,4-tetrahydroquinazolin-7-yl]urea]
92% | 130 nM | CCC1(CC)C[C@@H](NC(=O)Nc2ccc3c(c2)NC(=O)CO3)c2cc(F)ccc2O1 [Example 109, 1-[(4R)-2,2-diethyl-6-fluoro-3,4-dihydro-2H-chromen-4-yl]-3-(3-oxo-3,4-dihydro-2H-1,4-benzoxazin-6-yl)urea]
100% | 2500 nM | O=C1COc2ccc(NC(=O)NCC3COc4ccc(F)cc4C3)cc2N1 (stereo not drawn) [Example 133, 1-[(6-fluoro-3,4-dihydro-2H-chromen-3-yl)methyl]-3-(3-oxo-3,4-dihydro-2H-1,4-benzoxazin-6-yl)urea]
50% | 220 nM | CN1Cc2ccc(NC(=O)N[C@@H]3CCc4cc(F)ccc43)cc2NC1=O [Example 202, 1-[(1R)-5-fluoro-2,3-dihydro-1H-inden-1-yl]-3-(3-methyl-2-oxo-1,2,3,4-tetrahydroquinazolin-7-yl)urea]
21% | 5000 nM | O=C(Nc1ccc2c(c1)NC(=O)N(CCO)C2)N[C@@H]1CC(CF)(CF)Oc2cc(F)ccc21 [Example 319, 1-[(4R)-7-fluoro-2,2-bis(fluoromethyl)-3,4-dihydro-2H-chromen-4-yl]-3-[3-(2-hydroxyethyl)-2-oxo-1,2,3,4-tetrahydroquinazolin-7-yl]urea]
46% | 260 nM | COCC1(COC)C[C@@H](NC(=O)Nc2cccc3c2ccc(=O)n3C)c2cc(F)ccc2O1 [Example 79, 1-[(4R)-6-fluoro-2,2-bis(methoxymethyl)-3,4-dihydro-2H-chromen-4-yl]-3-(1-methyl-2-oxo-1,2-dihydroquinolin-5-yl)urea]
28% | 19 nM | CCC1(CC)C[C@@H](NC(=O)Nc2cccc3c2ccc(=O)n3C)c2cc(F)ccc2O1 [Example 74, 1-[(4R)-2,2-diethyl-6-fluoro-3,4-dihydro-2H-chromen-4-yl]-3-(1-methyl-2-oxo-1,2-dihydroquinolin-5-yl)urea]
24% | 17 nM | CN1C(=O)NCc2c(NC(=O)N[C@@H]3CC(C)(C)Oc4c3ccc(F)c4Cl)cccc21 [Example 5, 1-[(4R)-8-chloro-7-fluoro-2,2-dimethyl-3,4-dihydro-2H-chromen-4-yl]-3-(1-methyl-2-oxo-1,2,3,4-tetrahydroquinazolin-5-yl)urea]
44% | 86 nM | CN1Cc2ccc(NC(=O)N[C@@H]3CC(C)(C)Oc4cc(C(F)(F)F)ccc43)cc2NC1=O [Example 184, 1-[(4R)-2,2-dimethyl-7-(trifluoromethyl)-3,4-dihydro-2H-chromen-4-yl]-3-(3-methyl-2-oxo-1,2,3,4-tetrahydroquinazolin-7-yl)urea]
